{
  "source": "patent US5723494A",
  "about": "“Derivatives of glutamic and aspartic acids, a method of preparing them, and their use as drugs for enhancing memory and learning” (priority 1993, dated 1998)",
  "key": {"[1]": {"experiment": "Acute toxicity (LD50) in the mouse", "conditions": "in vivo"}, "[2]": {"experiment": "Memory-enhancement activity in the active avoidance test in the rat", "assay_type": "in vivo, rat (male Wistar)", "conditions": "for % variation vs controls, avoidance learning / % variation vs controls, avoidance memory / % variation vs controls, escape response / % variation vs controls, shock response / % variation vs controls, total avoidance response / Average % avoidance learning, last 10 TR / Average % avoidance memory, first 10 TR/40 TR / Average % escape response / Average % shock response / Average % total avoidance response, 40 trials: fifth day", "text": "3) Memory-enhancement activity in the \"active avoidance\" test in the rat\nMale Wistar rats which weighed about 200 g and had not fasted were used. The method consisted of making the animal understand that, in order to avoid a shock, it must go from one compartment of the equipment used (a shuttle box) to the other. For this reason it is defined as active avoidance (because the animal takes action to avoid the punishment).\nIn this test it is also possible to discriminate between two different parameters: memory and learning.\nThe equipment consisted of a cage divided into two portions by a wall with an opening at floor level to enable the animal to go from one portion of the cage to the other.\nThe reinforcement, that is, the reason which forced the rat to become conditioned to the sound and to the light, consisted of an electrical stimulus coming from the grid floor of the cage (an Unconditioned stimulus). The floor of the cage was constituted by a metal grid for the passage of the current and could rock so that, each time the rat passed through the dividing hole, the floor tilted, due to its weight, interrupting the current.\nThe test lasted for five days. On the first day, the animals were subjected to the first session of 40 cycles with an interval of 30 sec between cycles (duration of the session=20 minutes).\nFor each 30 sec cycle, a light stimulus and a sound stimulus lasting for 3 seconds were applied, followed by the 0.4 mA shock, which also lasted for 3 sec.\nAt the end of the first day, the rats were selected randomly in homogeneous groups and treated with the product under test or with physiological solutions (controls).\nOn subsequent days, the rats underwent the first treatment 15 minutes before the session and the second treatment at the end of the day. In 5 days of tests the animal thus underwent 8 treatments in total.\nThe 40 cycles were divided into 4 sessions each of 10 cycles for the 5 days' duration of the test.\nThe performance of each animal was evaluated as: % shock response, % escape response; % total avoidance response (these refer to all 40 cycles of each day); memory, as % of the avoidance responses in the first session of each day (the first 10 cycles); learning: as % of avoidance responses in the fourth session of each day (the last 10 cycles).\nAll the % were calculated on regression lines calculated on the basis of the responses obtained daily for each individual parameter, on the fifth (last) day of the experiment.\nThe results are expressed as the percentage variation of the averages of the individual responses obtained for the treated groups in comparison with the control group. The results thus calculated are given in Table 3 below, which gives the statistical analysis between the treatment groups against the controls, carried out by analysis of the relative variance with respect to the overall results for the 5 days."}, "[3]": {"experiment": "Antagonism of the amnesic effect induced by scopolamine in the passive avoidance test in the rat", "assay_type": "in vivo", "conditions": "for % Effect vs controls / Latency (STL): FS + SCOP", "method": "4) Antagonism of the amnesic effect induced by scopolamine in the \"passive avoidance\" test in the rat.\nThe shuttle box equipment was used for passive avoidance as described in Experiment 2 with the following modifications: the compounds (or physiological solutions for the control group) were administered intraperitoneally (IP) 45 min before the training, whereas scopolamine (SCOP) was administered 30 min before the training. The foot shock (FS) consisted of a 0.2 mA shock of 5 sec duration.\nThe retest to determine memory was executed 24 h after the training. In each individual experiment, the following groups were used: a control group (-FS), a control group (+FS), a control group (FS+SCOP), 3 treatment groups with different doses of the product under test (FS+SCOP)."}, "[4]": {"test_system": "excitor amino-acid receptors of cortical membranes (\"forebrain\") of rats", "experiment": "Inhibition of the specific binding of [3H]-glutamate to rat forebrain membranes", "outline": "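Forebrain membranes (cortex plus hippocampus, striatum removed) in Tris-HCl pH 7.1 incubated with ³H-L-glutamate and test compound for 20 min at 37 °C. Filtration on glass-fibre filters, scintillation counting; specific binding = total minus binding with 3.6 mM cold L-glutamate.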"}},
  "note": "Entries after “also recorded” stand apart in the source; their conditions may differ.",
  "data": [
    {"smiles": "CC1(C)CCC(NC(=O)[C@@H](N)CCC(=O)O)CC1", "note": "[Compound 23, 1-(4,4-dimethylcyclohexyl)-L-isoglutamine[4-amino-5-(4',4'-dimethylcyclohexylamine)-5-oxopentanoic acid (S)]]", "values": [
      {"measurement": "LD50", "setting": "[1]; IV", "result": 290, "unit": "mg/kg"},
      {"measurement": "LD50", "setting": "[1]; po, OS", "result": 1300, "unit": "mg/kg"},
      {"measurement": "% variation vs controls, avoidance learning", "setting": "[2]; 1 mg/kg i.p. 2/day", "result": "+17.2%"},
      {"measurement": "% variation vs controls, avoidance memory", "setting": "[2]; 1 mg/kg i.p. 2/day", "result": -16.7, "unit": "%"},
      {"measurement": "% variation vs controls, escape response", "setting": "[2]; 1 mg/kg i.p. 2/day", "result": -11.1, "unit": "%"},
      {"measurement": "% variation vs controls, shock response", "setting": "[2]; 1 mg/kg i.p. 2/day", "result": -8.6, "unit": "%"},
      {"measurement": "% variation vs controls, total avoidance response", "setting": "[2]; 1 mg/kg i.p. 2/day", "result": "+33.3%"},
      {"measurement": "Average % avoidance learning, last 10 TR", "setting": "[2]; 1 mg/kg i.p. 2/day", "result": 34, "unit": "%"},
      {"measurement": "Average % avoidance memory, first 10 TR/40 TR", "setting": "[2]; 1 mg/kg i.p. 2/day", "result": 10, "unit": "%"},
      {"measurement": "Average % escape response", "setting": "[2]; 1 mg/kg i.p. 2/day", "result": 8, "unit": "%"},
      {"measurement": "Average % shock response", "setting": "[2]; 1 mg/kg i.p. 2/day", "result": 64, "unit": "%"},
      {"measurement": "Average % total avoidance response, 40 trials", "setting": "[2]; 1 mg/kg i.p. 2/day", "result": 26, "unit": "%"},
      {"measurement": "% variation vs controls, avoidance learning", "setting": "[2]; 3 mg/kg i.p. 2/day", "result": "+82.7%"},
      {"measurement": "% variation vs controls, avoidance memory", "setting": "[2]; 3 mg/kg i.p. 2/day", "result": "+142%"},
      {"measurement": "% variation vs controls, escape response", "setting": "[2]; 3 mg/kg i.p. 2/day", "result": "+144%"},
      {"measurement": "% variation vs controls, shock response", "setting": "[2]; 3 mg/kg i.p. 2/day", "result": -51.4, "unit": "%"},
      {"measurement": "% variation vs controls, total avoidance response", "setting": "[2]; 3 mg/kg i.p. 2/day", "result": "+109%"},
      {"measurement": "Average % avoidance learning, last 10 TR", "setting": "[2]; 3 mg/kg i.p. 2/day", "result": 53, "unit": "%"},
      {"measurement": "Average % avoidance memory, first 10 TR/40 TR", "setting": "[2]; 3 mg/kg i.p. 2/day", "result": 29, "unit": "%"},
      {"measurement": "Average % escape response", "setting": "[2]; 3 mg/kg i.p. 2/day", "result": 22, "unit": "%"},
      {"measurement": "Average % shock response", "setting": "[2]; 3 mg/kg i.p. 2/day", "result": 34, "unit": "%"},
      {"measurement": "Average % total avoidance response, 40 trials", "setting": "[2]; 3 mg/kg i.p. 2/day", "result": 44, "unit": "%"},
      {"measurement": "% variation vs controls, avoidance learning", "setting": "[2]; 10 mg/kg i.p. 2/day", "result": "+145%"},
      {"measurement": "% variation vs controls, avoidance memory", "setting": "[2]; 10 mg/kg i.p. 2/day", "result": "+183%"},
      {"measurement": "% variation vs controls, escape response", "setting": "[2]; 10 mg/kg i.p. 2/day", "result": "+241%"},
      {"measurement": "% variation vs controls, shock response", "setting": "[2]; 10 mg/kg i.p. 2/day", "result": -81.4, "unit": "%"},
      {"measurement": "% variation vs controls, total avoidance response", "setting": "[2]; 10 mg/kg i.p. 2/day", "result": "+166%"},
      {"measurement": "Average % avoidance learning, last 10 TR", "setting": "[2]; 10 mg/kg i.p. 2/day", "result": 71, "unit": "%"},
      {"measurement": "Average % avoidance memory, first 10 TR/40 TR", "setting": "[2]; 10 mg/kg i.p. 2/day", "result": 34, "unit": "%"},
      {"measurement": "Average % escape response", "setting": "[2]; 10 mg/kg i.p. 2/day", "result": 31, "unit": "%"},
      {"measurement": "Average % shock response", "setting": "[2]; 10 mg/kg i.p. 2/day", "result": 13, "unit": "%"},
      {"measurement": "Average % total avoidance response, 40 trials", "setting": "[2]; 10 mg/kg i.p. 2/day", "result": 56, "unit": "%"},
      {"measurement": "Shock responses (in words)", "setting": "[2]; rat, i.p.", "result": "greatly reduced"},
      {"measurement": "Total avoidance responses (in words)", "setting": "[2]; rat, i.p.", "result": "significantly increases the total avoidance responses in a dose-dependent manner"},
      {"measurement": "% Effect vs controls", "setting": "[3]; 0.1 mg/kg IP", "result": 7.1, "unit": "%"},
      {"measurement": "Latency (STL)", "setting": "[3]; 0.1 mg/kg IP", "result": 60.8, "unit": "s"},
      {"measurement": "% Effect vs controls", "setting": "[3]; 1 mg/kg IP", "result": 38.0, "unit": "%"},
      {"measurement": "Latency (STL)", "setting": "[3]; 1 mg/kg IP", "result": 72.0, "unit": "s"},
      {"measurement": "% Effect vs controls", "setting": "[3]; 10 mg/kg IP", "result": 55.8, "unit": "%"},
      {"measurement": "Latency (STL)", "setting": "[3]; 10 mg/kg IP", "result": 78.6, "unit": "s"},
      {"measurement": "ED50", "setting": "[3]; IP, rat, retest 24 h after training, read-out: ID50 (dose antagonizing the amnesic effect of scopolamine by 50%)", "result": 4.7, "unit": "mg/kg"},
      {"measurement": "Antagonism of the amnesic effect of scopolamine (in words)", "setting": "[3]; rat, IP", "result": "antagonizes the amnesic effect induced by scopolamine in a dose-dependent manner; also recorded: comparable, in this model, with that of tacrine"},
      {"measurement": "Activity in inhibiting the binding of glutamate (in words)", "setting": "[4]; rat cortical membranes", "result": "considerable activity in inhibiting the binding of the glutamate"},
      {"measurement": "IC50", "setting": "[4]; rat forebrain membranes, 20 min, 37° C., pH 7.1", "result": 13.8, "unit": "µM"}
    ]}
  ]
}
